Experimental data taken from BindingDB's records for doi:10.1016/j.bmcl.2005.09.022 (Bristol-Myers Squibb Pharmaceutical Research Institute, 2005).

Target: C-C chemokine receptor type 4 (Mus musculus) (UniProt P51680)
Assay: Inhibition of chemotaxis of murine CCR4 transfected L1.2 cells

Sequence of C-C chemokine receptor type 4 (Mus musculus) (P51680 whole entry, looked up): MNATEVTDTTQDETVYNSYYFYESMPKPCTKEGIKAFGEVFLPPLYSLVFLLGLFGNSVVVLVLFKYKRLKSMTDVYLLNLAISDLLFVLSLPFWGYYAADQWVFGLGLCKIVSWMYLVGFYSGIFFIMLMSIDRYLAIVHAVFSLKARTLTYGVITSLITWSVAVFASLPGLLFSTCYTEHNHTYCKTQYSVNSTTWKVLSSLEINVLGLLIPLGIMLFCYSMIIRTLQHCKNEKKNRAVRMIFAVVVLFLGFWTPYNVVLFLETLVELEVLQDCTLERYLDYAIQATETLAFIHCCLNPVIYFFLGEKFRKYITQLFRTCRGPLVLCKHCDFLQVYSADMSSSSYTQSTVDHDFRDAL

IC50: 380 nM
Structure (SMILES): O=C([C@H]1CCCCN1)N1CCN(c2nccc(NCc3ccc(Cl)cc3Cl)n2)CC1 [(R)-(4-(4-(2,4-dichlorobenzylamino)pyrimidin-2-yl)piperazin-1-yl)(piperidin-2-yl)methanone]
